This is an account of results in patent publication US11072618B2, “Compounds, compositions and methods” (Denali Therapeutics Inc., priority 2016, dated 2021).

Structures are written as SMILES.

In the assay the target is T1, GST-human receptor interacting protein kinase 1 fusion (8-327) enzyme (Homo sapiens, UniProt Q13546).
T1 sequence (Q13546 8-327): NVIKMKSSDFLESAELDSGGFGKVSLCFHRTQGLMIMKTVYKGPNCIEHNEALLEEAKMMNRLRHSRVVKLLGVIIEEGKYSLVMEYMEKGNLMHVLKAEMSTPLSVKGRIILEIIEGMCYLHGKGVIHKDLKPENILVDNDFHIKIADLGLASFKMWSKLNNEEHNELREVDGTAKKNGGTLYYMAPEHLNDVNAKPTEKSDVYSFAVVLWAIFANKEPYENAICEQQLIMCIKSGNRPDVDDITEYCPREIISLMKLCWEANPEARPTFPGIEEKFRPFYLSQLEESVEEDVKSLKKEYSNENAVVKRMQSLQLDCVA
The experiment in a line: Fluorescent Polarization Binding (FP Binding) assay, receptor interacting protein kinase 1. The settings on record: 10 nM enzyme, 5 nM fluorescent-labeled ligand, RT 30 min, mean of a minimum of two independent experiments. On the procedure: Fluorescent Polarization Binding (FP Binding) assay (Berger S. B. et al. (2015) Cell Death Discovery, 1: 15009; Maki J. L. et al. (2012) Anal Biochem., 427(2): 164-174) was performed in polystyrene low volume 384-well black plate, at Room Temperature (RT) in a final volume of 10.1 μL/well using 10 nM of GST-human receptor interacting protein kinase 1 fusion (8-327) enzyme and 5 nM of fluorescent-labeled ligand (14-(2-{[3-({2-{[4-(cyanomethyl)phenyl]amino}-6-[(5-cyclopropyl-1H-pyrazol-3-yl)amino]-4-pyrimidinyl}amino) propyl]amino}-2-oxoethyl)-16,16,18,18-tetramethyl-6,7,7a,8a,9,10,16,18-octahydrobenzo[2″,3″]indolizino[8″,7″:5′,6′]pyrano[3′,2′:3,4]pyrido[1,2-a]indol-5-ium-2-sulfonate.
Test compounds were serially diluted in DMSO at 100 fold final concentrations in the assay (1% DMSO final). In each well of a 384-well Plate were dispensed 0.1 μL of compound solution (or DMSO for controls) followed by 5 μL of GST-human receptor interacting protein kinase 1 fusion (8-327) enzyme at twice the final concentrations in assay buffer (50 mM HEPES pH 7.5, 10 mM NaCl, 50 mM MgCl2, 0.02% CHAPS, 0.5 mM DTT and 0.01% Pluronic F127). For negative control the enzyme addition was replaced by assay buffer only.
After addition of 5 μL of fluorescent-labeled ligand at twice the final concentrations in assay buffer, the plate was incubated at RT for 30 min. At the end, the binding was measured as FP value with the Envision (PerkinElmer) plate reader using filter for an excitation λ=531 nm FP and an emission λ=595 nm FP (S & P-pol).
Test compound inhibition was expressed as percent inhibition of internal assay controls. For concentration response curves, normalized data is fit and IC50 determined using XL-fit (IDBS) for Excel. IC50 were averaged to determine a mean value, for a minimum of two independent experiments.
Receptor interacting protein kinase 1 activity of exemplary compounds was determined according to the above general procedures.
As usually defined, the IC50 is the concentration needed to halve the response being measured. In the case of `CCC1(CCl)CN2CCC(c3cccc(F)c3)N2C1=O` (centres unmarked) [Compound 29], the IC50 was less than 1000 nM. In the case of `CC1(CC(F)(F)F)CN2CCC(c3cncc(F)c3)N2C1=O` (centres unmarked) [Compound 50] it was less than 1000 nM. `CC1(CC2CC2)CN2CCC(c3cccc(F)c3)N2C1=O` (centres unmarked) [Compound 17] yielded an IC50 of less than 1000 nM. Compound `CC1(C)CN2CCC(c3ccc(F)c(F)c3)N2C1=O` (centres unmarked) [Compound 9] showed an IC50 of 1000 to 30000 nM.

With `CC1(CC(F)(F)F)CN2CCC(c3cncc(F)c3)N2C1=O` (centres unmarked) [Compound 51], the IC50 lay within 1000 to 30000 nM.

Turning to `O=C1N2C(c3cncc(F)c3)CCN2CC1(CC1CC1)C(F)F` (centres unmarked) [Compound 53], the half-maximal inhibitory concentration (IC50) was in the range of 1000 to 30000 nM. As for `CC1(C)CN2CCC(c3cccc(F)c3)N2C1=O` (single isomer, unassigned) [Compound 3], the figure is less than 1000 nM; as for `CCCC1(C)CN2CCC(c3cccc(F)c3)N2C1=O` (centres unmarked) [Compound 15], 1000 to 30000 nM. As to `CCC1(C(F)F)CN2CCC(c3cc(F)cc(C#N)c3)N2C1=O` (centres unmarked) [Compound 31], the IC50 is less than 1000 nM. In the case of `CC(F)(F)C1(C)CN2CCC(c3cc(F)cc(C#N)c3)N2C1=O` (centres unmarked) [Compound 43] it was 1000 to 30000 nM; in that of `CC1(C(F)F)CN2CCC(c3cc(F)cc(C#N)c3)N2C1=O` (centres unmarked) [Compound 40], less than 1000 nM; in that of `CC(F)(F)C1(C)CN2CCC(c3cncc(C#N)c3)N2C1=O` (centres unmarked) [Compound 37], less than 1000 nM. In the case of `CC1(C)CN2CC[C@@H](c3ccccc3)N2C1=O` [Compound 1], the IC50 is less than 1000 nM. For `O=C1N2C(c3cncc(F)c3)CCN2CC1(CC(F)(F)F)C(F)F` (centres unmarked) [Compound 48], the IC50 lay within 1000 to 30000 nM. As for `CCCC1(C(F)F)CN2CCC(c3cncc(C#N)c3)N2C1=O` (centres unmarked) [Compound 54], the figure is less than 1000 nM; as for `CCC1(C(F)F)CN2CCC(c3cncc(C#N)c3)N2C1=O` (centres unmarked) [Compound 19], less than 1000 nM; as for `CCC1(C(F)F)C[C@H]2CCC(c3cccc(F)c3)N2C1=O` (single isomer, unassigned) [Compound 55], less than 1000 nM. In the case of `O=C1N2C(c3cncc(F)c3)CCN2CC1(CC1CC1)C(F)F` (centres unmarked) [Compound 52] it was less than 1000 nM; in that of `CC1(C(F)F)CN2CCC(c3cncc(C#N)c3)N2C1=O` (single isomer, unassigned) [Compound 38], 1000 to 30000 nM; in that of `CCCC1(C)CN2CCC(c3cccc(F)c3)N2C1=O` (centres unmarked) [Compound 16], less than 1000 nM. In the case of `CC(F)(F)C1(C)CN2CCC(c3cccc(F)c3)N2C1=O` (centres unmarked) [Compound 13] it was less than 1000 nM; in that of `CC1(C)CC2(CN3CCC(c4cccc(F)c4)N3C2=O)C1` (centres unmarked) [Compound 12], less than 1000 nM; in that of `CCC1(C(F)F)CN2CCC(c3cncc(F)c3)N2C1=O` (centres unmarked) [Compound 33], less than 1000 nM. Turning to `CC(F)(F)C1(C)CN2CCC(c3cc(F)cc(C#N)c3)N2C1=O` (centres unmarked) [Compound 42], the IC50 is less than 1000 nM. As for `CC(F)(F)C1(C)CN2CCC(c3cncc(C#N)c3)N2C1=O` (single isomer, unassigned) [Compound 36], the figure is 1000 to 30000 nM; as for `CCC1(C)CN2CCC(c3cc(F)cc(F)c3)N2C1=O` (single isomer, unassigned) [Compound 22], less than 1000 nM; as for `CCC1(C)CN2CCC(c3cc(F)cc(F)c3)N2C1=O` (centres unmarked) [Compound 21], less than 1000 nM. In the case of `CCC1(C(F)F)CN2CCC(c3cncc(Br)c3)N2C1=O` (centres unmarked) [Compound 18] it was less than 1000 nM; in that of `CCC1(C)CN2CCC(c3cc(F)cc(C#N)c3)N2C1=O` (centres unmarked) [Compound 23], less than 1000 nM. In the case of `CC(F)(F)C1(C)CN2CCC(c3cncc(F)c3)N2C1=O` (centres unmarked) [Compound 47] it was less than 1000 nM; in that of `CCC1(C(F)F)C[C@@H]2CCC(c3cccc(F)c3)N2C1=O` (single isomer, unassigned) [Compound 57], less than 1000 nM; in that of `CCC1(C(F)F)CN2CCC(c3cccc(F)c3)N2C1=O` (centres unmarked) [Compound 20], less than 1000 nM. `CC(F)(F)C1(C)CN2CCC(c3cncc(F)c3)N2C1=O` (centres unmarked) [Compound 46] returned a concentration for half-maximal inhibition (IC50) of 1000 to 30000 nM. In the case of `CC1(CC#N)CN2CCC(c3cccc(F)c3)N2C1=O` (centres unmarked) [Compound 28] it was less than 1000 nM; in that of `CCC1(C)CN2CCC(c3cccc(F)c3)N2C1=O` (centres unmarked) [Compound 7], less than 1000 nM; in that of `CC1(C(F)F)CN2CCC(c3cc(F)cc(C#N)c3)N2C1=O` (centres unmarked) [Compound 41], 1000 to 30000 nM.

`CC1(C(F)F)CN2CCC(c3cncc(C#N)c3)N2C1=O` (single isomer, unassigned) [Compound 39] returned an IC50 of less than 1000 nM. In the case of `CCC1(CF)CN2CCC(c3cccc(F)c3)N2C1=O` (centres unmarked) [Compound 30] it was less than 1000 nM; in that of `C=CCC1(C)CN2CCC(c3cccc(F)c3)N2C1=O` (centres unmarked) [Compound 14], less than 1000 nM; in that of `CC1(C)CN2CCC(c3cccc(C#N)c3)N2C1=O` (centres unmarked) [Compound 4], 1000 to 30000 nM. As for `CC1(CC2CC2)CN2CCC(c3cc(F)cc(C#N)c3)N2C1=O` (centres unmarked) [Compound 35], the figure is less than 1000 nM; as for `CC1(C(F)F)CN2CCC(c3cncc(F)c3)N2C1=O` (single isomer, unassigned) [Compound 45], less than 1000 nM; as for `CCC1(C(F)F)CN2CCC(c3cncc(F)c3)N2C1=O` (centres unmarked) [Compound 34], 1000 to 30000 nM. In the case of `CCC1(C)CN2CCC(c3cncc(F)c3)N2C1=O` (centres unmarked) [Compound 26] it was 1000 to 30000 nM; in that of `CCC1(C)CN2CCC(c3ccc(F)c(F)c3)N2C1=O` (centres unmarked) [Compound 10], less than 1000 nM; in that of `CCC1(C)CN2CCC(c3cncc(F)c3)N2C1=O` (centres unmarked) [Compound 25], less than 1000 nM. `CC1(C)CCN2CCC(c3ccccc3)N2C1=O` (centres unmarked) [Compound 8] registered an IC50 of 1000 to 30000 nM. In the case of `CC1(CC(F)F)CN2CCC(c3cccc(F)c3)N2C1=O` (centres unmarked) [Compound 27] it was less than 1000 nM; in that of `CCC1(CC)CN2CCC(c3ccc(F)cc3)N2C1=O` (centres unmarked) [Compound 2], 1000 to 30000 nM. `CC1(C)CN2CCC(c3cc(F)cc(C#N)c3)N2C1=O` (centres unmarked) [Compound 5] displayed an IC50 of less than 1000 nM.
